Where two headings read alike, the source gives them in different places.
Experiments:
[1] = system: U-937 cells; assay: Analysis of mitochondria depolarization by flow cytometry (JC-9 dye); assay type: cell-based, human
Description: Further experiments assessed whether the observed death from 12-D, 13-D, and 15-D was due to apoptosis or necrosis.
Analysis of Mitochondria Depolarization by Flow Cytometry: The depolarization of the mitochondrial membrane was measured by the fluorescence emitted by the JC-9 dye (Molecular Probes, Eugene Oreg.). 100 μM of 13-D or 10 μM etoposide in 1 μL of EtOH were added to cell culture flasks containing 50 mL of 10×10^6 U-937 cells/mL. […] 10 μg of the JC-9 dye was added to 1×10^6 cells in 1 mL and incubated at room temperature for 10 min. Cells were washed twice with PBS and resuspended in a final volume of 500 μL PBS. The fluorescence intensity of each cell was determined by flow cytometry at 525 nm (channel 1 green) and 675 nm (channel 4 red). 50,000 cells were analyzed in each experiment. The data was then analyzed using Summit Software (Cytomation, Fort Collins Colo.) and the number of cells within the upper left region, viable cells, was determined.
Apoptotic assays. To determine whether the observed death was due to apoptosis or necrosis, several apoptotic hallmarks were examined. Thus early stage (mitochondrial membrane depolarization), middle stage (caspase-3 like activation, PARP-1 cleavage) and late stage (chromatin condensation, phosphatidylserine exposure, membrane blebbing) biochemical events were monitored. The depolarization of mitochondrial membranes facilitates the release of pro-apoptotic proteins such as cytochrome c and AIF (apoptosis inducing factor) from the mitochondria into the cytosol. Several dyes, including JC-9, have been developed that provide a sensitive readout on this process. […] The release of pro-apoptotic stimuli from the mitochondria initiates a cascade of events that ultimately results in the activation of the “executioner” caspases, typically caspase-3 and caspase-7. The caspase-3-like activity of the cells can be monitored with peptidic substrates. […] PARP-1 cleavage. A final event in apoptosis is the exposure of phosphatidylserine on the outer leaflet of the cell membrane; this event allows for recognition of apoptotic cells by phagocytes, ultimately leading to the engulfment of the apoptotic cell and the recycling of the various cellular components.

[2] = system: U-937 cells; assay: High-throughput cell death assay on library members (MTS/PMS); assay type: cell-based, human; conditions: library members at 100 μM, 24 hours
Description: A three-tiered system was devised to identify compounds that selectively induce apoptosis in cancer cells. First, all compounds were screened at 100 μM in a high-throughput manner for their ability to induce death in two cancer cell lines, HL-60 (leukemia) and U-937 (lymphoma).
Test compounds were transferred into the wells using a 96-pin transfer apparatus (V & P Scientific, San Diego Calif.) that transfers 0.2 μL of compound. The compounds were made up as 50 mM stock solutions in 100% EtOH, so one transfer gave a final concentration of 100 μM. Controls were performed in which only EtOH (containing no compound) was pin-transferred into wells containing cells. The cells were incubated with the compounds for 24 hours, and then cell death was quantitated.

[3] = in vitro; assay type: cell-based, human; conditions: human
[4] = system: U-937 cell line; assay: Death induction by amide library, MTS dye reduction; assay type: cell-based, human
Description: Compounds were tested in a U937 cell assay as previously described by Hergenrother et al. (see Hergenrother 2003 and U.S. 60/516,566).
The ability of the 100 amides thus produced to induce death in cancer cells was assessed by an assay based on the reduction of the MTS (3-(4,5-dimethylthiazol-2-yl)-5-(3-carboxymethoxyphenyl)-2-(4-sulfophenyl)-2H-tetrazolium, inner salt) dye. This tetrazolium dye is rapidly converted to the formazan product by living cells, and therefore provides a sensitive readout of cell life or death that can be monitored at 490 nm.

[5] = system: human bone marrow cells; assay: Toxicity to bone marrow cells of a healthy donor, MTS bioreduction after 72 hours; assay type: cell-based; conditions: Bone marrow cell, Table 13, bone marrow cells of healthy donor
Description: Specificity for cancer cells. The vast majority of anti-cancer drugs are toxic to all rapidly dividing cell types, often leading to deleterious side effects and a reduced therapeutic window. For instance, hematopoietic bone marrow is responsible for the production of red and white blood cells, and the anemia observed upon treatment with certain chemotherapy agents is in a large part due to the toxicity of the anti-cancer drugs on cells in the human bone marrow. Thus, to determine the relative effect of the triphenylamides on melanoma versus normal cells, cells derived from the human bone marrow of a healthy donor were used; measurement of the effect on healthy bone marrow cells can assist in assessing the toxicity of putative anti-cancer agents. (17-20) These cells were treated with increasing concentrations of the compounds shown in Table 13, and cell viability was evaluated after 72 hours using the MTS bioreduction assay. The data in Table 13 indicate that several of the triphenyl amides have selective toxicity to melanoma cells versus the human bone marrow cells.

[6] = system: UACC-62; assay: Death induction in melanoma cell line; assay type: cell-based, human
Description: (§1) Given the interesting and somewhat unusual trait of G1 arrest, compounds x and y were tested for their ability to induce death in two melanoma cell lines: UACC-62 (human), and B16-F10 (mouse). […] Compounds x and y were also submitted for testing in the NCl 60-cell line assay. […] The triphenylamides (TPAs) induce apoptosis in these melanoma cell lines.

[7] = system: U-937 cells; assay: cells; assay type: cell-based, human; conditions: Homo sapiens; Table 13, U-937
[8] = system: HL-60 cells; assay: Determination of IC50 values, cell death by MTS/PMS after 72 h; conditions: Homo sapiens, HL-60, read-out: HL-60
Description: General Cell Culture Conditions: U-937 and HL-60 cell lines were grown in RPMI 1640 supplemented with 10% FBS and incubated at 37° C. in a 5% CO2, 95% air atmosphere and were split every two to three days as necessary.
Cells were then resuspended in RPMI 1640+10% FBS, counted using a hemocytometer and diluted so that 10,000 cells were seeded in to each well of a Corning 96-well flat bottom microtiter plate (Fisher, Chicago Ill.). Media was then added to bring the total volume of each well to 100 μL. Each compound was weighed and then diluted with EtOH to make a 100 mM stock solution. The compounds were added at 9 or more different concentration in 1 μL of EtOH. After a 72 h incubation (37° C. in a 5% CO2, 95% air atmosphere) cell death was quantitated by addition of 20 μL of the MTS/PMS CellTiter 96 Cell Proliferation Assay reagent (Promega, Madison Wis.) to each well. The plates were incubated at 37° C. for approximately 1 hour until the colored product formed and the absorbance was then measured at 490 nm in a Spectra Max Plus 384 plate reader (Molecular Devices, Sunnyvale Calif.). The IC50 was taken as the concentration that caused 50% cell death.

[9] = system: B16-F10; assay: Death induction in melanoma cell line; assay type: cell-based, mouse
Description: as §1

[10] = system: etoposide induced apoptosis; assay: Inhibition of etoposide induced apoptosis; assay type: cell-based
[11] = hit compounds of first generation library, read-out: IC50 Value-U-937 cells
[12] = Homo sapiens, Table 13, UACC-62 melanoma, read-out: UACC-62
[13] = Mus musculus, B16-F10, Table 13, B16F10 melanoma, read-out: B16F10
[14] = UACC-62, human melanoma cell line, read-out: IC50, UACC-62
[15] = B16-F10, mouse melanoma cell line, read-out: IC50, BF16-F10
[16] = Homo sapiens, U-937, hit compounds of first generation library, read-out: IC50 Value-U-937 cells

## COc1cc(/C=C/C(=O)NC[C@H](O)c2ccc(O)cc2)ccc1O [Compound 15-D, N-[2-(R)-Hydroxy-2-(4-hydroxy-phenyl)-ethyl]-3-(4-hydroxy-3-methoxy-phenyl)-acrylamide]
[1]
  observed death due to apoptosis or necrosis: induced some apoptosis, some necrosis
[2]
  Induction of death in U-937 cells (percentages of cell death): 89%
[3]
  IC50 at 72 h: 109000 nM

## COc1ccc(CCNC(=O)CC(c2ccccc2)(c2ccccc2)c2ccccc2)cc1OC [drawing 69, R1 = H, R2 = OCH3, R3 = OCH3]
[4]; [11]
  IC50: 18300 nM

## CC(=O)OC(CNC(=O)C(c1ccccc1)(c1ccccc1)c1ccccc1)c1ccccc1 (centres unmarked)
[5]
  IC50: 4000 nM
[6]; [12]
  IC50: 620 nM
[7]
  IC50: 10800 nM
[8]
  IC50: 16200 nM
[9]; [13]
  IC50: 800 nM

## COc1cccc(CCNC(=O)CC(c2ccccc2)(c2ccccc2)c2ccccc2)c1 [drawing 74]
[6]; [14]
  IC50: 1340 nM
[9]; [15]
  IC50: 850 nM

## O=C(NCCc1ccccc1)C(c1ccccc1)(c1ccccc1)c1ccccc1 [drawing 73]
[6]; [14]
  IC50: 490 nM
[9]; [15]
  IC50: 420 nM

## COc1ccccc1CCNC(=O)CC(c1ccccc1)(c1ccccc1)c1ccccc1 [drawing 69, R1 = OCH3, R2 = H, R3 = H]
[4]; [11]
  IC50: 15700 nM

## O=C(NC12CC3CC(CC(C3)C1)C2)C(c1ccccc1)(c1ccccc1)c1ccccc1 [drawing 78]
[5]
  IC50: 590 nM
[6]; [12]
  IC50: 2410 nM
[7]
  IC50: 480 nM
[8]
  IC50: 850 nM
[9]; [13]
  IC50: 15700 nM

## COc1ccc(CNC(=O)C(c2ccccc2)(c2ccccc2)c2ccccc2)cc1
[5]
  IC50: 4770 nM
[6]; [12]
  IC50: 690 nM
[7]
  IC50: 8160 nM
[8]
  IC50: 10500 nM
[9]; [13]
  IC50: 600 nM

## COc1cccc(/C=C/C(=O)Nc2cc(OC)c(OC)c(OC)c2)c1
[4]; [16]
  IC50: 8000 nM

## O=C(NCCc1ccccc1)C(c1ccccc1)(c1ccccc1)c1ccccc1 [drawing 68, R = H]
[4]; [11]
  IC50: 8000 nM

## COc1ccc(/C=C/C(=O)NC23CC4CC(CC(C4)C2)C3)c2ccccc12
[4]; [16]
  IC50: 7100 nM

## COc1cc(/C=C/C(=O)NC[C@@H](OC)c2ccc(O)cc2)ccc1O [Compound 9-D, 3-(4-Hydroxy-3-(S)-methoxy-phenyl)-N-[2-(4-hydroxy-phenyl)-2-methoxy-ethyl]-acrylamide]
[2]
  Induction of death in U-937 cells (percentages of cell death): 20%
[3]
  IC50 at 72 h: 273000 nM
[10]
  activity in assays exploring inhibition of etoposide induced apoptosis: Neither compound 1 nor any library members showed activity

## COc1ccc(CNC(=O)CC(c2ccccc2)(c2ccccc2)c2ccccc2)c(OC)c1
[5]
  IC50: 1870 nM
[6]; [12]
  IC50: 520 nM
[7]
  IC50: 7170 nM
[8]
  IC50: 2260 nM
[9]; [13]
  IC50: 550 nM

## O=P1(N(CCCl)CCCl)NCCCO1 (centres unmarked) [Cyclophosphamide]
[6]; Homo sapiens, UACC-62, read-out: UACC-62
  IC50: > 100000 nM
[9]; Mus musculus, B16-F10, read-out: B16F10
  IC50: > 100000 nM

## O=C(NC1CCCc2ccccc21)C(c1ccccc1)(c1ccccc1)c1ccccc1 (centres unmarked)
[5]
  IC50: 500 nM
[6]; [12]
  IC50: 1770 nM
[7]
  IC50: 1250 nM
[8]
  IC50: 2210 nM
[9]; [13]
  IC50: 980 nM

## C[C@]12C=CC(=O)C=C1CC[C@@H]1[C@@H]2C(=O)C[C@@]2(C)[C@H]1CC[C@]2(O)C(=O)CO [Prednisone]
[6]; [12]
  IC50: > 100000 nM
[9]; [13]
  IC50: > 100000 nM

## CCCCCCCCCCCCCCCC(=O)N(C)C(C)C(O)c1ccccc1 (centres unmarked)
[4]; Homo sapiens, U-937, read-out: IC50 Value-U-937 cells
  IC50: 3100 nM

## O=C(NC12CC3CC(CC(C3)C1)C2)C(c1ccccc1)(c1ccccc1)c1ccccc1 [drawing 75]
[6]; [14]
  IC50: 2400 nM
[9]; [15]
  IC50: 15600 nM

## O=C(CC(c1ccccc1)(c1ccccc1)c1ccccc1)NCCc1cccnc1
[5]
  IC50: 680 nM
[6]; [12]
  IC50: 700 nM
[7]
  IC50: 930 nM
[8]
  IC50: 1390 nM
[9]; [13]
  IC50: 1610 nM

## COc1cc(/C=C/C(=O)NC[C@@H](O)c2ccccc2)ccc1O (stereo in doubt) [Compound 12-D, 3-(4-Hydroxy-3-methoxy-phenyl)-N-(2-hydroxy-2-phenyl-ethyl)-acrylamide]
[1]
  observed death due to apoptosis or necrosis: induced some apoptosis, some necrosis
[2]
  Induction of death in U-937 cells (percentages of cell death): 82%
[3]
  IC50 at 72 h: 61000 nM

## COc1cc([C@@H]2c3cc4c(cc3[C@@H](O[C@@H]3O[C@@H]5CO[C@@H](C)O[C@H]5[C@H](O)[C@H]3O)[C@H]3COC(=O)[C@H]23)OCO4)cc(OC)c1O [Etoposide]
[6]; [12]
  IC50: > 100000 nM
[9]; [13]
  IC50: > 100000 nM

## COc1cc(/C=C/C(=O)NCCc2ccc(O)cc2)cc(OC)c1OC [Compound 17-F]
[2]
  Induction of death in U-937 cells (percentages of cell death): 9%

## O=C(/C=C/c1ccc(O)c(O)c1)NC[C@H](O)c1ccc(O)cc1 [Compound 15-C]
[2]
  Induction of death in U-937 cells (percentages of cell death): −29%

## COc1cccc(/C=C/C(=O)NC[C@H](O)c2ccc(O)cc2)c1 [Compound 15-H]
[2]
  Induction of death in U-937 cells (percentages of cell death): 24%

## CO[C@H](CNC(=O)/C=C/c1ccc(O)c(O)c1)c1ccccc1 [Compound 8-C]
[2]
  Induction of death in U-937 cells (percentages of cell death): −5%

## COc1ccc([C@@H](CNC(=O)/C=C/c2ccc(OC)c(O)c2)OC)cc1 [Compound 10-E]
[2]
  Induction of death in U-937 cells (percentages of cell death): 55%

## O=C(NC1C2CC3CC(C2)CC1C3)C(c1ccccc1)(c1ccccc1)c1ccccc1 (centres unmarked)
[5]
  IC50: 320 nM
[6]; [12]
  IC50: 15300 nM
[7]
  IC50: 490 nM
[8]
  IC50: 920 nM
[9]; [13]
  IC50: 7410 nM

## COc1cc(/C=C/C(=O)NC[C@@H](O)c2ccc(O)cc2)cc(OC)c1O [Compound 13-G]
[2]
  Induction of death in U-937 cells (percentages of cell death): 16%

## CO[C@@H](CNC(=O)/C=C/c1ccc(O)cc1)c1ccc(O)cc1 [Compound 11-B]
[2]
  Induction of death in U-937 cells (percentages of cell death): 60%

## COc1cc(/C=C/C(=O)NCCc2ccccc2)cc(OC)c1O [Compound 16-G]
[2]
  Induction of death in U-937 cells (percentages of cell death): 20%

## CO[C@H](CNC(=O)/C=C/c1ccc(O)cc1)c1ccc(O)cc1 [Compound 9-B]
[2]
  Induction of death in U-937 cells (percentages of cell death): 20%

## COc1cc(/C=C/C(=O)NC[C@H](OC)c2ccc(O)cc2)cc(OC)c1O [Compound 11-G]
[2]
  Induction of death in U-937 cells (percentages of cell death): −11%

## O=C(/C=C/c1ccccc1)NCCc1ccc(O)cc1 [Compound 17-A]
[2]
  Induction of death in U-937 cells (percentages of cell death): 48%

## COc1cc(/C=C/C(=O)NC[C@H](O)c2ccc(O)cc2)cc(OC)c1O [Compound 15-G]
[2]
  Induction of death in U-937 cells (percentages of cell death): 47%

Source: patent publication US7632972B2, “Compounds and methods for treatment of cancer and modulation of programmed cell death for melanoma and other cancer cells” (The Board of Trustees of the University of Illionis, priority 2003, dated 2009)
